Experimental data as given in the NIST ThermoML archive (doi:10.1016/j.jct.2012.11.027).

Experiment: xn = mol fraction of the nth substance listed
Settings: 101 kPa, Liquid, Linear variable-path acoustic interferometer

C=CC(=O)OC [methyl propenoate] + CCCCO
speed of sound [m/s]
Settings	288.15 K	293.15 K	298.15 K	303.15 K	308.15 K	313.15 K	318.15 K
x1 = 0.0777	1271.2	1250.8	1230.5	1212.8	1193.9	1174.9	1155
x1 = 0.1555	1261.3	1240.6	1220.1	1202.2	1182.9	1163.7	1143.8
x1 = 0.2273	1253.3	1232.6	1212.2	1194.2	1174.7	1155.5	1135.6
x1 = 0.299	1247	1226.3	1205.9	1187.7	1167.9	1148.7	1128.7
x1 = 0.3791	1241.3	1220.5	1200.2	1181.7	1161.6	1142.2	1122.1
x1 = 0.4593	1236.9	1216.1	1195.7	1176.8	1156.4	1136.8	1116.5
x1 = 0.5344	1233.9	1212.8	1192.4	1173.1	1152.4	1132.5	1111.9
x1 = 0.6095	1231.7	1210.5	1189.9	1170.3	1149.2	1128.9	1108
x1 = 0.6789	1230.3	1208.9	1188.2	1168.2	1146.7	1126.2	1104.9
x1 = 0.7483	1229.2	1207.7	1186.9	1166.6	1144.6	1123.8	1102.3
x1 = 0.8099	1228.5	1206.9	1186	1165.4	1143.1	1122.1	1100.4
x1 = 0.8715	1228	1206.2	1185.3	1164.4	1141.7	1120.6	1098.6
x1 = 0.9358	1227.4	1205.5	1184.5	1163.4	1140.4	1119	1096.9
x1 = 1	1226.6	1204.6	1183.6	1162.2	1139.1	1117.8	1095.7
